Test results taken from article PMC10239048, “Synthesis and antioxidant, antimicrobial, and antiviral activity of some pyrazole-based heterocycles using a 2(3H)-furanone derivative” (Journal of the Iranian Chemical Society, 2023).
Values after ≈ are worked out from the molar mass of the structure shown.

What was measured:
[1] = Total antioxidant capacity (TAC), phosphomolybdenum method; conditions: for Total antioxidant capacity: 500 µg/ml in methanol, 95 °C 90 min, 695 nm, means ± S.D., n = 3
[2] = system: avian influenza HPAI-H5N1 (AIV); set-up: species or system avian influenza virus HPAI-H5N1; conditions: in vivo
[3] = system: avian influenza HPAI-H5N1 (AIV); set-up: species or system avian influenza virus HPAI-H5N1; conditions: in vivo; remark: listed apart in the source
Haemophilus (Gram –ve) [4] = experiment: Agar/disk diffusion inhibition zone, Haemophilus; assay type: cell-based; conditions: diffusion method
Staphylococcus aureus [5] = experiment: Agar/disk diffusion inhibition zone, Staphylococcus aureus; assay type: cell-based; conditions: diffusion method
Candida albicans = experiment: Agar diffusion antifungal activity, Candida albicans; assay type: cell-based; conditions: diffusion method
Haemophilus (Gram –ve) [6] = experiment: MIC measurement by serial dilution, Haemophilus; assay type: cell-based; conditions: read-out: MIC Haemophilus (Gram –ve)
Staphylococcus aureus [7] = experiment: MIC measurement by serial dilution, Staphylococcus aureus; assay type: cell-based; conditions: 37 °C, 24–72 h, read-out: MIC Staph (Gram + ve)
SPF chicks = experiment: Immune-boosting properties in vaccinated SPF chicks (humeral response); assay type: in vivo, chicken; conditions: for Humeral response of vaccinated groups which received each tested compound separately: SPF chicks, vaccine-only group 7 log2; for Immune-boosting properties (in words): antibody titer in serum of vaccinated chicks
[8] = system: embryonated chicken SPF eggs; conditions: in vivo

SMILES | melting point [°C] | Antioxidant activity (in words) [1] | Total antioxidant capacity [1] [mg AAE/g dry compound] | TI [2] | Antiviral activity against avian influenza virus (in words) [3] | Inhibition diameter Haemophilus (Gram –ve) (Haemophilus (Gram –ve) [4]) [mm] | Inhibition diameter Staph (Gram + ve) (Staphylococcus aureus [5]) [mm] | Candida albicans (diameter of inhibition zone) (Candida albicans) [mm] | MIC (Haemophilus (Gram –ve) [6]) [µg/mL] | MIC (Staphylococcus aureus [7]) [µg/mL] | Humeral response of vaccinated groups which received each tested compound separately (SPF chicks) [log2] | Immune-boosting properties (in words) (SPF chicks) | CC50 [8] | Virus titer with compound [3]
Cc1ccc(C2=CC(=Cc3c(C)nn(-c4ccccc4)c3Cl)C(=O)N2Cc2ccccc2)cc1 | 152 to 154 |  |  |  |  |  |  |  |  |  |  |  |  | 
Cc1ccc(-c2cc(Cc3c(C)nn(-c4ccccc4)c3Cl)c(=O)[nH]n2)cc1 [Compound 9, 4-((5-chloro-3-methyl-1-phenyl-1H-pyrazol-4-yl)methyl)-6-(p-tolyl)pyridazin-3(2H)-one] |  | highest potent levels of activity | 374.0 ± 2.08 | 50 | little antiviral activity | 1 | 2 | 2 | 20 (≈ 51.2 µM) | 19 | 6 | less immune-boosting properties | 400 > µl/ egg | 
Cc1ccc(C(=O)CC(=Cc2c(C)nn(-c3ccccc3)c2Cl)C(=O)NNc2ccccc2)cc1 [Compound 10, 2-((5-Chloro-3-methyl-1-phenyl-1H-pyrazol-4-yl)methylene)-4-oxo-N'-phenyl-4-(p-tolyl)butanehydrazide] |  | highest potent levels of activity | 336.0 ± 3.46 | 55.5 | little antiviral activity | 6 | 7 | 7 | 17 (≈ 35.1 µM) | 13 | 6.9 |  | 500 > µl/ egg | 
Cc1ccc(C(=O)CC(=Cc2c(C)nn(-c3ccccc3)c2Cl)C2=NCCN2)cc1 [Compound 11, 4-(5-Chloro-3-methyl-1-phenyl-1H-pyrazol-4-yl)-3-(4,5-dihydro-1H-imidazol-2-yl)-1-(p-tolyl)but-3-en-1-one] |  |  | 280.0 ± 2.0 | 83.3 | remarked antiviral activity | 22 | 25 | 24 | 2 (≈ 4.77 µM) | 5 | 7.1 | special immune-boosting properties | 500 > µl/ egg | 10^1
CC(=O)NN1C(=O)C(=Cc2c(C)nn(-c3ccccc3)c2Cl)C=C1c1ccc(C)cc1 [Compound 12, N-(3-((5-Chloro-3-methyl-1-phenyl-1H-pyrazol-4-yl)methylene)-2-oxo-5-(p-tolyl)-2,3-dihydro-1H-pyrrol-1-yl)acetamide] | 114 to 116 | Moderate antioxidant activity | 163.0 ± 1.75 |  |  |  |  |  |  |  |  |  |  | 
CC(=O)N(C(C)=O)N1C(=O)C(=Cc2c(C)nn(-c3ccccc3)c2Cl)C=C1c1ccc(C)cc1 [Compound 13, N-Acetyl-N-(3-((5-chloro-3-methyl-1-phenyl-1H-pyrazol-4-yl)methylene)-2-oxo-5-(p-tolyl)-2,3-dihydro-1H-pyrrol-1-yl)acetamide] |  | Moderate antioxidant activity | 190.0 ± 1.67 | 71.42 | less antiviral activity | 12 | 14 | 14 | 10 (≈ 21.1 µM) | 9 | 6.9 |  | 500 > µl/ egg | 
Cc1ccc(C2=CC(=Cc3c(C)nn(-c4ccccc4)c3Cl)C(=O)N2NC(=O)c2ccccc2)cc1 [Compound 14, N-(3-((5-Chloro-3-methyl-1-phenyl-1H-pyrazol-4-yl)methylene)-2-oxo-5-(p-tolyl)-2,3-dihydro-1H-pyrrol-1-yl)benzamide] |  |  | 261.0 ± 2.48 | 55.5 | little antiviral activity | 8 | 7 | 7 | 16 (≈ 32.3 µM) | 16 | 7.2 |  | 500 > µl/ egg | 
Cc1ccc(C2=CC(=Cc3c(C)nn(-c4ccccc4)c3Cl)C(=O)N2N=Cc2ccc(Cl)cc2)cc1 [Compound 15, 3-((5-Chloro-3-methyl-1-phenyl-1H-pyrazol-4-yl)methylene)-1-((4-chlorobenzylidene)-amino)-5-(p-tolyl)-1,3-dihydro-2H-pyrrol-2-one] |  |  | 262.27 ± 2.51 | 55.5 | little antiviral activity | 7 | 6 | 6 | 16 (≈ 31.2 µM) | 18 | 6.6 |  | 500 > µl/ egg | 10^5
Cc1ccc(C(=O)CC(=Cc2c(C)nn(-c3ccccc3)c2Cl)C(=O)NN=Cc2cn(-c3ccccc3)nc2-c2ccccc2)cc1 [Compound 16, 2-((5-Chloro-3-methyl-1-phenyl-1H-pyrazol-4-yl)methylene)-N'-((1,3-diphenyl-1H-pyrazol-4-yl)methylene)-4-oxo-4-(p-tolyl)butanehydrazide] |  |  | 205.82 ± 2.45 | 83.3 | remarked antiviral activity | 23 | 22 | 23 | 6 (≈ 9.39 µM) | 5 | 7.2 | special immune-boosting properties | 500 > µl/ egg | 10^1
